Assay results from ChEMBL document CHEMBL5046241, “The novel therapeutic strategy of vilazodone-donepezil chimeras as potent triple-target ligands for the potential treatment of Alzheimer's disease with comorbid depression” (Eur J Med Chem, 2022).

Experiments:
[1] = target: 5-hydroxytryptamine receptor 1B (Homo sapiens, UniProt P28222)
Description: Agonist activity at 5-HT1B receptor (unknown origin)

[2] = in vitro; conditions: Sprague-Dawley, rat, microsomes
[3] = in vitro; conditions: Sprague-Dawley, rat, microsomes; remark: listed apart in the source
[4] = in vitro; conditions: CD-1, mouse, microsomes
[5] = in vitro; conditions: CD-1, mouse, microsomes; remark: listed apart in the source
[6] = target: T1, Acetylcholinesterase (Mus musculus, UniProt P21836); assay: Inhibition of mouse AChE assessed as inhibition constant using acetylthiocholine iodide as substrate measured every 2 mins by lineweaver-burk plot analysis
T1 sequence (P21836 whole entry): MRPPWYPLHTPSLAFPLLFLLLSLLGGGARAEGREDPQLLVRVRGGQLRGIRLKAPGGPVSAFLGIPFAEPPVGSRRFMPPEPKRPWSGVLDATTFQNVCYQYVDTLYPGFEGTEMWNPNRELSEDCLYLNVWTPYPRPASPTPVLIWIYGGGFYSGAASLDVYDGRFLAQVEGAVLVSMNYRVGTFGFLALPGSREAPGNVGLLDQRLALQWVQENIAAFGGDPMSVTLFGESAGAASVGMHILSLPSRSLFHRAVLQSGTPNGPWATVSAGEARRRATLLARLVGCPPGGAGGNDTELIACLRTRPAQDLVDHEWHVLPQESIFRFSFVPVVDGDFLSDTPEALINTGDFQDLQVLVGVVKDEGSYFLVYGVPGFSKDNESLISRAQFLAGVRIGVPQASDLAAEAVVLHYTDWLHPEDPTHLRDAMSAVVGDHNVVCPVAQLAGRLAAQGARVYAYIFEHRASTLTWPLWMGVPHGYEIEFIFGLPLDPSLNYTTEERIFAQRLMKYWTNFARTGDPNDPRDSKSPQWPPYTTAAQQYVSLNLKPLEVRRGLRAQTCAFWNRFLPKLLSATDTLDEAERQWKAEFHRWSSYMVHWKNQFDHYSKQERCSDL

[7] = target: Sodium-dependent serotonin transporter (Homo sapiens, UniProt P31645); assay type: cell-based, HEK293
Sequence of Sodium-dependent serotonin transporter (P31645 whole entry): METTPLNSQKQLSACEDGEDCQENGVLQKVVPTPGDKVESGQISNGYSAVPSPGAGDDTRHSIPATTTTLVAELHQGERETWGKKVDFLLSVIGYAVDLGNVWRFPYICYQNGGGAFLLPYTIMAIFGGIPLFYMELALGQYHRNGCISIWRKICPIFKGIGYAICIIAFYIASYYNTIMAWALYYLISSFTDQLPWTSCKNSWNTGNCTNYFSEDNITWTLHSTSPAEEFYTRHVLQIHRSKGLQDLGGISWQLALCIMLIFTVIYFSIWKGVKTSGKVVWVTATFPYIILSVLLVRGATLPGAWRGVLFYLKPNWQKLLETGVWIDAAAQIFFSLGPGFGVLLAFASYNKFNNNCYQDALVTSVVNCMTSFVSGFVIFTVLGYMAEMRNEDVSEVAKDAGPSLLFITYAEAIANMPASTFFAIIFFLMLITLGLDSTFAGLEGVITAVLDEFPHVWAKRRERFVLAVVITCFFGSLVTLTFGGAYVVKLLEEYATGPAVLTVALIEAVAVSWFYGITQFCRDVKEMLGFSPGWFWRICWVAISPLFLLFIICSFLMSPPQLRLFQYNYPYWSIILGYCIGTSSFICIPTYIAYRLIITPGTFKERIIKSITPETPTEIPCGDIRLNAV

[8] = target: Acetylcholinesterase (Homo sapiens, UniProt P22303); assay: Inhibition of […] using acetylthiocholine iodide as substrate incubated for 20 mins by Ellman's method; parameters: species or system Erythrocyte
Sequence of Acetylcholinesterase (Homo sapiens, UniProt P22303) (P22303 whole entry): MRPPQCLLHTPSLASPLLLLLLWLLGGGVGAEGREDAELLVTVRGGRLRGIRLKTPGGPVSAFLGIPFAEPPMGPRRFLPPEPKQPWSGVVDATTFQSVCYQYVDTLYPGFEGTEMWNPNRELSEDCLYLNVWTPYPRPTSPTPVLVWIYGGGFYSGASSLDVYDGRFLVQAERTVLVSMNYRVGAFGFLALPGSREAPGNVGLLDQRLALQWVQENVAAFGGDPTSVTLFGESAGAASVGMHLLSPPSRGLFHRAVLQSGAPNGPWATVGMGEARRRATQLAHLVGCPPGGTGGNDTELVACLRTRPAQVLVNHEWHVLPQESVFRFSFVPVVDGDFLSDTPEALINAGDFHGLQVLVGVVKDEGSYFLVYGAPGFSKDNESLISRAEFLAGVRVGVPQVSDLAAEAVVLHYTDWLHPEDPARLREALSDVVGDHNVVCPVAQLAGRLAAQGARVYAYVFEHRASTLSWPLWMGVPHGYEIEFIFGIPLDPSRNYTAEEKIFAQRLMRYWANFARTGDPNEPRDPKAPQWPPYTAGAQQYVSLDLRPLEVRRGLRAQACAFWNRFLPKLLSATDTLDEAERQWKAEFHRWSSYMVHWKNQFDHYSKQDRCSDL

[9] = target: Cholinesterase (Mus musculus, UniProt Q03311)
Sequence of Cholinesterase (Q03311 whole entry): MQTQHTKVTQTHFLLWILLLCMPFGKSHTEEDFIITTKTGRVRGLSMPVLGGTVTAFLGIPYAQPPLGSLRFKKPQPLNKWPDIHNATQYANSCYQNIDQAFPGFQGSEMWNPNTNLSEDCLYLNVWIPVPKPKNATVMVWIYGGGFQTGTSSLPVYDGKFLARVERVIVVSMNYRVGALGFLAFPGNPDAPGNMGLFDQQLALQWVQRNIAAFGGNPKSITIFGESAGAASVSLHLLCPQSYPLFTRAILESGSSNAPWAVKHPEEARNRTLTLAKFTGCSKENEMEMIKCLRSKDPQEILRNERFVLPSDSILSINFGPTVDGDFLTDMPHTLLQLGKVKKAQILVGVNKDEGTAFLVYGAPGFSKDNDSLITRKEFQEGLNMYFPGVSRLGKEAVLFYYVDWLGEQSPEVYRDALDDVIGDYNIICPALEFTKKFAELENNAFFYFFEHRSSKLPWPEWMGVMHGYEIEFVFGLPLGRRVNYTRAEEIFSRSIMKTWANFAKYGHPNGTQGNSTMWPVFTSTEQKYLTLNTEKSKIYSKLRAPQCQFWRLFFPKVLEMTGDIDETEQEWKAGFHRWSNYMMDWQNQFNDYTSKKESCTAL
Description: Inhibition of BuChE in mouse serum using butyrylthiocholine iodide as substrate incubated for 20 mins by Ellman's method

[10] = target: T2, 5-hydroxytryptamine receptor 1A (Homo sapiens, UniProt P08908)
T2 sequence (P08908 whole entry): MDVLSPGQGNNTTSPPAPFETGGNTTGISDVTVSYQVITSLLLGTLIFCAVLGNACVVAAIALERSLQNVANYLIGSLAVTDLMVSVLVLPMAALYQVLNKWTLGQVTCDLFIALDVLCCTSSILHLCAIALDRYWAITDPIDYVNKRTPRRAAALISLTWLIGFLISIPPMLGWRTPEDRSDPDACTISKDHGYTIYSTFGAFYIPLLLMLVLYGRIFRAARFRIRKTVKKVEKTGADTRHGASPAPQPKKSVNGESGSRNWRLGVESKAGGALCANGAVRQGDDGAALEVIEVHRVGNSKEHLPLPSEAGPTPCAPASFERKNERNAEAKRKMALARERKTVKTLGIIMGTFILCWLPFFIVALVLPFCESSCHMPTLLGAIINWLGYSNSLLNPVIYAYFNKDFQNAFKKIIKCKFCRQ
Description: Agonist activity at human 5-HT1A receptor expressed in HEK293 cells incubated for 60 mins by Eu-cAMP tracer based LANCE ultra cAMP assay

[11] = target: Voltage-gated inwardly rectifying potassium channel KCNH2 (Homo sapiens, UniProt Q12809)
Sequence of Voltage-gated inwardly rectifying potassium channel KCNH2 (Q12809 whole entry): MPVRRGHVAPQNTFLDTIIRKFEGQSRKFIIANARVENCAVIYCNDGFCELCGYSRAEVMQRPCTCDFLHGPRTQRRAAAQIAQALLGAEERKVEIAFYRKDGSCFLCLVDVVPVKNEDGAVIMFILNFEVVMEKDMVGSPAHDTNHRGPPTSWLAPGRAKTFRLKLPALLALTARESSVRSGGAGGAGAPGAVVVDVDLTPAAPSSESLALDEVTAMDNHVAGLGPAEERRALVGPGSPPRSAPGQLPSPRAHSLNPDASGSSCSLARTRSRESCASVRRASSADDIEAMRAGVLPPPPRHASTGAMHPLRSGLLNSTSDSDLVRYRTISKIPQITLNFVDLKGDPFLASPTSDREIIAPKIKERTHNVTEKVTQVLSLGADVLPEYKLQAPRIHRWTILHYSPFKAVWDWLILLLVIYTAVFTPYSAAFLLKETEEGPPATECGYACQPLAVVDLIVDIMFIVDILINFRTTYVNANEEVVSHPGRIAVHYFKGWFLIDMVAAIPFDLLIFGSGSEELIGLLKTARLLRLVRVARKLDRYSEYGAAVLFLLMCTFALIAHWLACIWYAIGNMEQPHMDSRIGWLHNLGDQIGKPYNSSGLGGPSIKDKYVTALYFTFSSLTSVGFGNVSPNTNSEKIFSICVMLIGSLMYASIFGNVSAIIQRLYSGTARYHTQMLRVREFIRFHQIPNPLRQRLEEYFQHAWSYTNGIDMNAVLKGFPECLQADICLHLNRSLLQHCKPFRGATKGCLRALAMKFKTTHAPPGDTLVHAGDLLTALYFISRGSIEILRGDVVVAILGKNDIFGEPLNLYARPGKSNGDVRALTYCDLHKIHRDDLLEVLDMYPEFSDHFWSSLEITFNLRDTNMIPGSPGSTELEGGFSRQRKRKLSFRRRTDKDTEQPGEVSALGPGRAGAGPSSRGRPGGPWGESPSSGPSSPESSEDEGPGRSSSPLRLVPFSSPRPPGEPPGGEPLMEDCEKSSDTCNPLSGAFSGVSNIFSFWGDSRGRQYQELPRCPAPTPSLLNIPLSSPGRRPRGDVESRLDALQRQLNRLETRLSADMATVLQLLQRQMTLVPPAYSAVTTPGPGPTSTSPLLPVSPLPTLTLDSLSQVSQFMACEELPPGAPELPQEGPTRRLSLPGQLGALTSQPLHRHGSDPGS
Description: Inhibition of hERG expressed in CHO cells at -80 mV holding potential by automated patch clamp method

[12] = target: Sodium-dependent dopamine transporter (Homo sapiens, UniProt Q01959)
Sequence of Sodium-dependent dopamine transporter (Q01959 whole entry): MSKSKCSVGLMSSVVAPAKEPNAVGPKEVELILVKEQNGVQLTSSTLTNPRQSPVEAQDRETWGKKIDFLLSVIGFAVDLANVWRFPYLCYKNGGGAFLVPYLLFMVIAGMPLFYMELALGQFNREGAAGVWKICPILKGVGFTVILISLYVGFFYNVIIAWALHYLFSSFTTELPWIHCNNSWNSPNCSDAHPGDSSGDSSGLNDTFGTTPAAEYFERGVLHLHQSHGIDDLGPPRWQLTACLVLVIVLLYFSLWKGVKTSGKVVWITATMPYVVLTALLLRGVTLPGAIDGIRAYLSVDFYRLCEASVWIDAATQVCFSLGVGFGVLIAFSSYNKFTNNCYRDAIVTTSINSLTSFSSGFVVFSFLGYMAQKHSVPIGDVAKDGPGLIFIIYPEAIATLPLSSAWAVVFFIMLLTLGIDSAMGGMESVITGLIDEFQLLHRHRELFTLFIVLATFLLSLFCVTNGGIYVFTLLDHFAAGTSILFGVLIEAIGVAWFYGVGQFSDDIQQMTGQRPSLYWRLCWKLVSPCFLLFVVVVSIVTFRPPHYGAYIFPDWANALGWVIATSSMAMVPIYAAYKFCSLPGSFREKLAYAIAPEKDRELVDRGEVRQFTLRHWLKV
Description: Inhibition of dopamine transporter (unknown origin)

[13] = target: T1, Acetylcholinesterase; assay: biochemical
Description: Inhibition of AChE in mouse cortical homogenate using acetylthiocholine iodide as substrate incubated for 20 mins by Ellman's method

[14] = in vitro; conditions: PAMPA
Description: Permeability of compound by PAMPA-BBB assay

[15] = target: Sodium-dependent noradrenaline transporter (Homo sapiens, UniProt P23975)
Sequence of Sodium-dependent noradrenaline transporter (P23975 whole entry): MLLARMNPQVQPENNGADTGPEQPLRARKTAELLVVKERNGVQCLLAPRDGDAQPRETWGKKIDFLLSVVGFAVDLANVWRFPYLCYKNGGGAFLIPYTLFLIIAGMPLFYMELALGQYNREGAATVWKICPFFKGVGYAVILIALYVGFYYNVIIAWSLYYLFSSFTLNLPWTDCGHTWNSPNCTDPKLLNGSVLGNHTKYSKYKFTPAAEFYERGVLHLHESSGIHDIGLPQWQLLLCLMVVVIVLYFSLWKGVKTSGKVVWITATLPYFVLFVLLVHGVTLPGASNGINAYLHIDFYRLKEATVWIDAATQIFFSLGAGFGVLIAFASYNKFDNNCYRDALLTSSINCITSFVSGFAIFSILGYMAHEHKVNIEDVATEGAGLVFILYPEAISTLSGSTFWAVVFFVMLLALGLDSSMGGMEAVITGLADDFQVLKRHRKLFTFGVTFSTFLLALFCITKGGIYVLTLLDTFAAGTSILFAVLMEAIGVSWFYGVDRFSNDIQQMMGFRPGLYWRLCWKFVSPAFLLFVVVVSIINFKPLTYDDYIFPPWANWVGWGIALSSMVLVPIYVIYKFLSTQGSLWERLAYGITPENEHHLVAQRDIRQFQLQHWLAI
Description: Inhibition of norepinephrine transporter (unknown origin)

Sequence of 5-hydroxytryptamine receptor 1B (P28222 whole entry): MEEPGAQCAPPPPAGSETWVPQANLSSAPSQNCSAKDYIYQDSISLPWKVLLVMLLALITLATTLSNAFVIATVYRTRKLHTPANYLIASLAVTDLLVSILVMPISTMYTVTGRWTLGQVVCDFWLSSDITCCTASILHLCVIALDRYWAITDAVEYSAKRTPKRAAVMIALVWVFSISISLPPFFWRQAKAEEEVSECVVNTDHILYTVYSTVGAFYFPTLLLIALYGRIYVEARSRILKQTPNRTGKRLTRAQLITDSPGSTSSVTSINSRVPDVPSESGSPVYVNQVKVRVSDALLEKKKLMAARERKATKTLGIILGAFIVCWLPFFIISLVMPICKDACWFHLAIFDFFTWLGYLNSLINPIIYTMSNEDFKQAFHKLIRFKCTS

## CN1CCC[C@@H]1Cc1c[nH]c2ccc(CCS(=O)(=O)c3ccccc3)cc12
[1]
  EC50: 0.0116 µM

## COc1cc2c(cc1OC)C(=O)C(CC1CCN(Cc3ccccc3)CC1)C2 (stereo unspecified) [DONEPEZIL]
[2]
  half-life at […]: > 145 min
[3]
  microsomal CLint at […]: < 9.6 µL/min/mg
[4]
  half-life at […]: 46 min
[5]
  microsomal CLint at […]: 34.8 µL/min/mg

## N#Cc1ccc2[nH]cc(CCCCN3CCN(c4ccc(C(=O)CCC5CCN(Cc6ccccc6)CC5)cc4)CC3)c2c1
[6]
  Ki: 0.00116 µM
[7]
  IC50: 0.0292 µM
[8]
  IC50: 0.00058 µM
[9]
  IC50: 2.18 µM
[10]
  EC50: 0.0586 µM
[11]
  IC50: > 40 µM
[12]
  IC50: 1.04 µM
[1]
  EC50: > 30 µM
[13]
  IC50: 0.00229 µM

## N#Cc1ccc2[nH]cc(CCCCN3CCN(c4ccc(C(=O)CCC5CCN(Cc6ccsc6)CC5)cc4)CC3)c2c1
[7]
  IC50: 0.0201 µM
[9]
  IC50: 0.883 µM
[10]
  EC50: 0.0666 µM
[14]
  Papp: 4.62 ×10⁻⁶ cm/s
[13]
  IC50: 0.00301 µM

## N#Cc1ccc2[nH]cc(CCCCN3CCN(c4ccc(C(=O)CCC5CCN(Cc6cc[nH]c6)CC5)cc4)CC3)c2c1
[7]
  IC50: 0.00825 µM
[9]
  IC50: 2 µM
[10]
  EC50: 0.0222 µM
[14]
  Papp: 4.77 ×10⁻⁶ cm/s
[13]
  IC50: 0.00394 µM

## N#Cc1ccc2[nH]cc(CCCN3CCN(c4ccc5c(c4)CC(CC4CCN(Cc6ccccc6)CC4)C5=O)CC3)c2c1 (stereo unspecified)
[7]
  IC50: 0.0184 µM
[9]
  IC50: 0.551 µM
[10]
  EC50: 0.316 µM
[14]
  Papp: 3.55 ×10⁻⁶ cm/s
[13]
  IC50: 0.00438 µM

## N#Cc1ccc2[nH]cc(CN3CCN(c4ccc(C(=O)CCC5CCN(Cc6cc[nH]c6)CC5)cc4)CC3)c2c1
[7]
  IC50: 0.0121 µM
[9]
  IC50: 1.15 µM
[10]
  EC50: > 1 µM
[14]
  Papp: 3.17 ×10⁻⁶ cm/s
[13]
  IC50: 0.00342 µM

## N#Cc1ccc2[nH]cc(CN3CCN(c4ccc(C(=O)CCC5CCN(Cc6ccccc6)CC5)cc4)CC3)c2c1
[7]
  IC50: 0.0545 µM
[9]
  IC50: 0.979 µM
[10]
  EC50: > 1 µM
[14]
  Papp: 3.67 ×10⁻⁶ cm/s
[13]
  IC50: 0.00643 µM

## N#Cc1ccc2[nH]cc(CN3CCN(c4ccc5c(c4)CC(CC4CCN(Cc6ccccc6)CC4)C5=O)CC3)c2c1 (stereo unspecified)
[7]
  IC50: 0.0159 µM
[9]
  IC50: 0.498 µM
[10]
  EC50: > 1 µM
[14]
  Papp: 3.61 ×10⁻⁶ cm/s
[13]
  IC50: 0.00668 µM

## N#Cc1ccc2[nH]cc(CCCCN3CCN(c4ccc5oc(C(N)=O)cc5c4)CC3)c2c1 [VILAZODONE]
[11]
  IC50: 5.55 µM
[15]
  IC50: 0.158 µM
[12]
  IC50: 0.295 µM
[1]
  EC50: > 30 µM
[14]
  Papp: 10.8 ×10⁻⁶ cm/s
[2]
  half-life at […]: 43.8 min
[3]
  microsomal CLint at […]: 31.6 µL/min/mg
[4]
  half-life at […]: 39.8 min
[5]
  microsomal CLint at […]: 30.1 µL/min/mg
[13]
  IC50: 21.3 µM

## C[C@]12CC[C@H]3[C@@H](CCC4=CC(=O)CC[C@@]43C)[C@@H]1CC[C@@H]2O [TESTOSTERONE]
[3]
  microsomal CLint at […]: 597 µL/min/mg
[5]
  microsomal CLint at […]: 189 µL/min/mg

## N#Cc1ccc2[nH]cc(CN3CCN(c4ccc(C(=O)CCC5CCN(Cc6ccsc6)CC5)cc4)CC3)c2c1
[7]
  IC50: 0.0752 µM
[9]
  IC50: 0.902 µM
[10]
  EC50: > 1 µM
[14]
  Papp: 5.25 ×10⁻⁶ cm/s
[13]
  IC50: 0.00235 µM
